Measured values published in patent US8501992B2, “Hydroxyphenyl sulfonamides as antiapoptotic bcl inhibitors” (Bristol-Myers Squibb Company, priority 2008, dated 2013).

Key:
Format in all cases: binding
Bcl-b = biological target: T1, Bcl-b (Homo sapiens, UniProt Q9HD36); test: Bclb/Bim fluorescence polarization assay (FPA); conditions: BIM BH3 peptide 5 nM, Bcl-b 40 nM, Ki calculated from FPA data
T1 construct: without their C-terminal transmembrane domain; GST; made in house
T1 sequence (Q9HD36 1-182 limits assumed): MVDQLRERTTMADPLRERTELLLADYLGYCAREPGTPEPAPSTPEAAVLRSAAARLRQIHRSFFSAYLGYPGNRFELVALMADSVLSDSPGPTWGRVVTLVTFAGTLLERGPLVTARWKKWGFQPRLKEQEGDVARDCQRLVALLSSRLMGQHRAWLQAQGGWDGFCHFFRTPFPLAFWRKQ
Source text: (§1) Compounds were profiled for their ability to disrupt in vitro binding interactions in fluorescence polarization assays (FPAs) using synthetic fluorochrome-labeled Bcl homology 3 (BH3) peptides derived from BIM [(FAM)-Ahx-[…]-NH2 (SEQ ID NO: 1) (GenBank Accession No. O43521)] or BAK [Ac-GQVGRQLAIIGE-LYS(FAM)-INR-NH2 (SEQ ID NO:2) (GenBank Accession No. Q16611) amino acid sequences and four bacterial recombinant proteins [Bcl-b (GenBank Accession No. Q9HD36), Bcl-2 (GenBank Accession No. P10415), Bcl-Xl (GenBank Accession No. Q07817), Mcl-1 (GenBank Accession No. Q07820)] without their C-terminal transmembrane domain. Proteins were purified from bacterial lysates using their glutathione S-transferase (GST)-tag (Bcl-b, Bcl-2, Mcl-1) or His6-tag (Bcl-Xl) and following one-step affinity chromatography procedures. Dissociation constants (Kd) for peptide binding protein were determined by fluorescence polarization in FPAs measuring BIM BH3 peptide binding Bcl-b, Mcl-1 or Bcl-2 protein or BAK BH3 peptide binding Bcl-Xl protein. The Kd values were generated by fitting the experimental data using a sigmoidal dose-response nonlinear regression model.
(§2) Compound inhibitory concentration values, IC50 (50% reduction in fluorescence polarization), were determined using fluorochrome-labeled BH3 peptides and recombinant Bcl proteins in fluorescence polarization assays (FPAs). Compounds diluted in DMSO (0.5 ul) were transferred (in duplicate) to individual wells of a 384-well plate. The fluorochrome-labeled peptide was added followed by recombinant protein addition. Each binding FPA reaction (50 ul) contained BIM BH3 peptide (5 nM) or BAK BH3 peptide (1.5 nM) and Bcl-b (40 nM), Mcl-1 (28 nM), Bcl-2 (11 nM) or Bcl-Xl. (5 nM) protein suspended in assay buffer [20 mM sodium phosphate, pH 7.4, 1 mM EDTA, 50 mM NaCl., 0.05% Pluronic F68]. Reaction mixtures were incubated at ambient temperature for 60 minutes prior to measuring polarization (mP) using an Analyst (LJL, Molecular Devices, Sunnyvale, Calif.) programmed to detect an emission wavelength of 530 nm after excitation (excitation wavelength=485 nm).
(§3) Competitive compound inhibition constants (Ki) were calculated using FPA experimental data and a mathematical equation, Ki=[I]50/([L]50/Kd+[P]0/Kd+1), where [I]50 denotes free inhibitor concentration at 50% inhibition, [L]50 is free labeled ligand concentration at 50% inhibition, [P]0 is free protein concentration at 0% inhibition, and Kd is the dissociation constant of the protein-ligand complex.

Mcl-1 = biological target: T2, Mcl-1 (Homo sapiens, UniProt Q07820); test: Mcl-1/Bim fluorescence polarization assay (FPA); conditions: BIM BH3 peptide 5 nM, Mcl-1 28 nM, Ki calculated from FPA data
T2 construct: without their C-terminal transmembrane domain; GST; made in house
Source text: as §1, §2, §3

Bcl-2 = biological target: T3, Bcl-2 (Homo sapiens, UniProt P10415); test: Bcl2/Bim fluorescence polarization assay (FPA); conditions: BIM BH3 peptide 5 nM, Bcl-2 11 nM, Ki calculated from FPA data
T3 construct: without their C-terminal transmembrane domain; GST; made in house
Source text: as §1, §2, §3

T2 sequence (Q07820 1-327 limits assumed): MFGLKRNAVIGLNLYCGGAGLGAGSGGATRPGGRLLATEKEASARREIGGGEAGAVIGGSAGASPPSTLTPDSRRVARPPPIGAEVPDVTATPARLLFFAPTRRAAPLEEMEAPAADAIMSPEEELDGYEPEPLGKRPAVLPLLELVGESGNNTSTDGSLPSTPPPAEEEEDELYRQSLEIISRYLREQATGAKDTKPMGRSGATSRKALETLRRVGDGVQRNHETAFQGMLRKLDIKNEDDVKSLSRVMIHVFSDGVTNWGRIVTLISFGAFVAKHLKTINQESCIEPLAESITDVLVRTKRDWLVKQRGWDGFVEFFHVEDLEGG
T3 sequence (P10415 1-211 limits assumed): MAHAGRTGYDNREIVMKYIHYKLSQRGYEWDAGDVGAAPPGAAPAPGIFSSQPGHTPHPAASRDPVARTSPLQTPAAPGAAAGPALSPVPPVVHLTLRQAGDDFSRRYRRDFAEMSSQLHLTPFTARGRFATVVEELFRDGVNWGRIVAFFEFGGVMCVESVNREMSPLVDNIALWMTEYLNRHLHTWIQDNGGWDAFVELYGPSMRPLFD

Ki (Bcl-b)	Ki (Mcl-1)	Ki (Bcl-2)	SMILES
120 nM	40 nM	170 nM	O=C(NCc1ccccc1)c1cc(Cl)c(O)c(S(=O)(=O)N(Cc2ccc(F)cc2)Cc2ccc(Oc3ccc(C(F)(F)F)cc3)cc2)c1 [Example 219, N-Benzyl-3-chloro-5-(N-(4-fluoro-benzyl)-N-(4-(4-(trifluoromethyl)-phenoxy)benzyl)sulfamoyl)-4-hydroxybenzamide]
77 nM	194 nM	133 nM	CS(=O)(=O)c1cccc(CN(Cc2cc(CNC(=O)c3cccc(Oc4ccccc4)c3)cc(Oc3ccc(F)cc3)c2)S(=O)(=O)c2cc(Cl)cc(Cl)c2O)c1 [Example 77, N-(3-((3,5-dichloro-2-hydroxy-N-(3-(methylsulfonyl)benzyl)phenylsulfonamido)methyl)-5-(4-fluorophenoxy)benzyl)-3-phenoxybenzamide]
610 nM	1640 nM	1800 nM	O=C(NCC(O)CO)c1cc(Cl)c(O)c(S(=O)(=O)N(Cc2ccc(F)cc2)Cc2cccc(-c3ccc(Cl)cc3)c2)c1 (stereo not drawn) [Example 214, 3-Chloro-5-(N-((4′-chlorobiphenyl-3-yl)methyl)-N-(4-fluorobenzyl)-sulfamoyl)-N-(2,3-dihydroxypropyl)-4-hydroxybenzamide]
40 nM	60 nM	60 nM	O=S(=O)(c1cccc(CN(Cc2ccc(F)cc2)S(=O)(=O)c2cc(Cl)cc(Cl)c2O)c1)N(Cc1ccc(F)cc1)Cc1cc(Cl)cc(Cl)c1 [Example 94, 3,5-Dichloro-N-(3-(N-(3,5-dichlorobenzyl)-N-(4-fluorobenzyl)sulfamoyl)benzyl)-N-(4-fluorobenzyl)-2-hydroxybenzenesulfonamide]
90 nM	30 nM	20 nM	Cc1ccc(S(=O)(=O)N(Cc2ccc(F)cc2)Cc2cc(CNS(=O)(=O)c3cc(Cl)cc(Cl)c3O)cc(-c3ccc(F)cc3)c2)cc1 [Example 13, 3,5-Dichloro-N-((4′-fluoro-5-((N-(4-fluorobenzyl)-4-methylphenylsulfonamido)methyl)biphenyl-3-yl)methyl)-2-hydroxybenzenesulfonamide]
60 nM	40 nM	80 nM	CCCCCCCCc1ccc(CN(Cc2cccc(Oc3ccc(F)cc3)c2)S(=O)(=O)c2cc(Cl)cc(Cl)c2O)cc1 [Example 235, 3,5-Dichloro-N-(3-(4-fluorophenoxy)benzyl)-2-hydroxy-N-(4-octylbenzyl)benzenesulfonamide]
180 nM	480 nM	440 nM	O=S(=O)(c1cc(Cl)cc(Cl)c1)N(CCO)Cc1ccc(CN(Cc2ccc(F)cc2)S(=O)(=O)c2cc(Cl)cc(Cl)c2O)cc1 [Example 176]
289 nM	207 nM	153 nM	COc1ccc(S(N)(=O)=O)cc1C(=O)NCc1cccc(CN(Cc2ccc(-c3ccccc3)cc2)S(=O)(=O)c2cc(Cl)cc(Cl)c2O)c1 [Example 39, N-(3-((N-(biphenyl-4-ylmethyl)-3,5-dichloro-2-hydroxyphenyl-sulfonamido)methyl)benzyl)-2-methoxy-5-sulfamoylbenzamide]
500 nM	1730 nM	660 nM	O=C(c1ccc(CN(Cc2ccc(F)cc2)S(=O)(=O)c2cc(Cl)cc(Cl)c2O)cc1)N1CCN(c2cnccn2)CC1 [Example 140, 3,5-Dichloro-N-(4-fluorobenzyl)-2-hydroxy-N-(4-(4-(pyrazin-2-yl)piperazine-1-carbonyl)benzyl)benzenesulfonamide]
40 nM	40 nM	40 nM	O=C(c1ccc(CN(Cc2ccc(F)cc2)S(=O)(=O)c2cc(Cl)cc(Cl)c2O)cc1)N(Cc1ccc(F)cc1)Cc1cc(Cl)cc(Cl)c1 [Example 106, 4-((3,5-Dichloro-N-(4-fluorobenzyl)-2-hydroxyphenylsulfonamido)methyl)-N-(3,5-dichlorobenzyl)-N-(4-fluorobenzyl)benzamide]
60 nM	30 nM	40 nM	O=C(c1ccc(N(Cc2ccc(F)cc2)S(=O)(=O)c2cc(Cl)cc(Cl)c2O)cc1)N(Cc1ccc(F)cc1)Cc1cc(Cl)cc(Cl)c1 [Example 175, 4-(3,5-Dichloro-N-(4-fluorobenzyl)-2-hydroxyphenylsulfonamido)-N-(3,5-dichlorobenzyl)-N-(4-fluorobenzyl)benzamide]
180 nM	530 nM	110 nM	CC(C)CN(Cc1cccc(CN(Cc2ccc(-c3ccc(F)cc3)cc2)S(=O)(=O)c2cc(Cl)cc(Cl)c2O)c1)C(=O)c1nc2ccccc2s1 [Example 191, N-(3-((3,5-Dichloro-N-((4′-fluorobiphenyl-4-yl)methyl)-2-hydroxyphenylsulfonamido)methyl)-benzyl)-N-isobutylbenzo[d]thiazole-2-carboxamide]
160 nM	530 nM	480 nM	CC(C)NC(=O)c1cc(Cl)c(O)c(S(=O)(=O)N(Cc2ccc(F)cc2)Cc2cccc(-c3ccc(Cl)cc3)c2)c1 [Example 211, 3-Chloro-5-(N-((4′-chlorobiphenyl-3-yl)methyl)-N-(4-fluorobenzyl)-sulfamoyl)-4-hydroxy-N-isopropylbenzamide]
80 nM	10 nM	10 nM	CC(C)CN(Cc1cc(Cl)cc(CN(CC(C)C)S(=O)(=O)c2cc(Cl)cc(Cl)c2O)c1)S(=O)(=O)c1cccnc1 [Example 15]
160 nM	280 nM	230 nM	O=S(=O)(NCc1ccc(CN(Cc2ccc(F)cc2)S(=O)(=O)c2cc(Cl)cc(Cl)c2O)cc1)c1cc(Cl)cc(Cl)c1 [Example 98, 3,5-Dichloro-N-(4-((3,5-dichlorophenylsulfonamido)methyl)benzyl)-N-(4-fluorobenzyl)-2-hydroxybenzenesulfonamide]
60 nM	10 nM	110 nM	O=S(=O)(c1cc(Cl)cc(Cl)c1O)N(Cc1ccc(F)cc1)Cc1ccc(CN(Cc2ccc(F)cc2)S(=O)(=O)c2cc(Cl)cc(Cl)c2O)cc1 [Example 96, N-(4-Fluoro-benzyl)-N-(4-{[(4-fluoro-benzyl)-(3,5-dichloro-2-hydroxybenzene)sulfonyl-amino]-methyl}-benzyl)-3,5-dichloro-2-hydroxybenzenesulfonamide]
470 nM	2700 nM	1220 nM	O=C(NCCCO)c1cc(Cl)c(O)c(S(=O)(=O)N(Cc2ccc(F)cc2)Cc2cccc(-c3ccc(Cl)cc3)c2)c1 [Example 213, 3-Chloro-5-(N-((4′-chlorobiphenyl-3-yl)methyl)-N-(4-fluorobenzyl)-sulfamoyl)-4-hydroxy-N-(3-hydroxypropyl)benzamide]
200 nM	460 nM	440 nM	CN(C)c1ccc(CNC(=O)c2ccc(CN(Cc3ccc(F)cc3)S(=O)(=O)c3cc(Cl)cc(Cl)c3O)cc2)cc1 [Example 150, 4-((3,5-Dichloro-N-(4-fluorobenzyl)-2-hydroxyphenylsulfonamido)methyl)-N-(4-(dimethylamino)benzyl)benzamide]
100 nM	40 nM	10 nM	Cc1ccc(S(=O)(=O)N(Cc2cc(CN(Cc3ccc(F)cc3)S(=O)(=O)c3cc(Cl)cc(Cl)c3O)cc(Oc3ccc(F)cc3)c2)CC(C)C)cc1 [Example 8, 3,5-Dichloro-N-(4-fluorobenzyl)-N-(3-(4-fluorophenoxy)-5-((N-isobutyl-4-methylphenylsulfonamido)methyl)benzyl)-2-hydroxybenzenesulfonamide]
33 nM	52 nM	42 nM	O=S(=O)(c1cc(Cl)cc(Cl)c1)N(Cc1ccc(F)cc1)Cc1cccc(CN(Cc2ccc(F)cc2)S(=O)(=O)c2cc(Cl)cc(Cl)c2O)n1 [Example 91, 3,5-dichloro-N-((6-((3,5-dichloro-N-(4-fluorobenzyl)phenylsulfonamido)methyl)pyridin-2-yl)methyl)-N-(4-fluorobenzyl)-2-hydroxybenzenesulfonamide]
